Results from US9072729B2, “Method for treating fibrosis and cancer with imidazolium and imidazolinium compounds” (Agency for Science, Technology and Research, priority 2008, dated 2015).

Assays:
[1] = Stability in drinking water by NMR analysis; format: physicochemical; settings: room temperature
[2] = test system: Bcl-2 and IAP protein expression in HepG2 cells; assay: Western blot of Bcl-2 and IAP family proteins; format: cell-based, human; settings: HepG2, 0-2.0 mM, 24 hr
Method: FIG. 24. DBZIM affected Bcl-2 and IAP protein expression. HepG2 cells were treated with DBZIM (0, 0.5, 1.0, 1.5 and 2.0 mM) for 24 hr. Total protein was collected using RIPA buffer. 15 μg of total protein was resolved in 4-12% gradient PAGE-SDS gel. The target proteins were recognized by respective antibodies, and visualized by the ECL method. The membrane was stripped and probed for the α-tubulin as the loading control.
(§1) Protein extracts were prepared by lysing cell pellet in RIPA buffer (Pierce, Ill., USA) for total protein extract, or in NE-PER reagent from Pierce (Pierce, Ill., USA) for nuclear and cytoplasmic fractions, or in a Kit from BioVision (CA, USA) for mitochondria and cytosol fractions. Protein content was quantified using BCA Kit (Pierce, Ill., USA). Fifteen micrograms of protein were resolved in 4-12% gradient SDS/polyacrylamide gel electrophoresis (PAGE) gel, and transferred to nitrocellular membrane. The membrane was then probed with primary antibodies against Bcl-XL, Bak, Bcl-2α, Bax (Lab Vision Corp., CA, USA), survivin, xIAP, cIAP (R&D systems Inc., MN, USA), c-Jun, c-Fos, JunB, JunD, Fra-1, Fra-2 (Santa Cruz Biotechnology, CA, USA) respectively, and detected by horseradish peroxidase-conjugated secondary antibody (Santa Cruz Biotechnology, CA, USA). Protein bands were recorded on X-ray film by reacting with ECL chemiluminescence reagents (Amersham Biosciences, NJ, USA). Alpha-tubulin (Abeam, UK) was used as the loading control for total protein, Tata binding protein (TBP) (Abeam, UK) was used as the loading control for nuclear protein, and Cox4 (Abcam, UK) was used as loading control for mitochondria protein.

HLE cells [3] = assay: Cell based caspase 3/7 and LDH assays, HLE; design: species or system human; settings: 6 hr
Method: FIG. 22. […] HLE or HepG2 cells were incubated with DBZIM of various concentrations for 6 hr, and assayed for caspase 3/7 activity and LDH releasing (expressed as % toxicity). DBZIM induced apoptosis as characterized by annexin V staining using flow cytometer in HLE (E) and HepG2 (F). Scatter plot and histogram gave the representative information on the cell population distribution while bar graphs quantified the percentage of apoptotic cells from the histogram. HLE and HepG2 cells were treated by DBZIM of various concentrations for 24 hr before harvesting for annexin V staining and flow cytometric analysis.
Capspase 3/7 activity and lactate dehydrogenase (LDH) release were measured by Fluorometric assays (Promega Corp., WI, USA). The HCC cells were cultured in 96-well plate and treated with DBZIM of various concentrations for 6 hr before assays. For caspase 3/7 assay, medium was removed and substrate buffer was added to lyse the cell and react with caspase 3/7 to give rise to fluorescence signal which was read at Ex=485 nm and Em=530 nm on a Tecan Safire II plate reader after 1 hr incubation. The caspase 3/7 activity of sample cells with the compound treatment was expressed as relative fold change after normalizing to the control cells. The LDH assay (indicative of membrane integrity) was performed using a Kit from Promega Corp according to manufactor's instructions.

AIF = AIF translocation (Western blot and HCS); format: cell-based, human; settings: 24 hr
Method: FIG. 26. DBZIM induced cytoplasm-to-nucleus translocation of AIF. (A). DBZIM translocated AIF from cytoplasm to nucleus. HepG2 cells were treated by DBZIM for 24 hr. Cytoplasmic and nuclear proteins were fractionated using a kit from Pierce. 15 μg of proteins were resolved in 4-12% gradient PAGE-SDS gel. The target proteins were recognized by the antibody of AIF, and visualized by the ECL method. The membrane was stripped and re-probed for α-tubulin as the loading control for cytoplasmic fraction and Tata binding protein TBP for nuclear protein. (B). HLE cells were grown in 96-well plate and treated by DBZIM for 24 hr. The cells were then fixed and stained by antibody of AIF. The images were acquired and analyzed using ArrayScan VTI HCS reader (Thermal Scientific, PA, USA) and Target Activation BioApplication software. The arrows indicate the cytoplasmic and the nuclear location of the AIF staining in the control and the DBZIM, respectively. (C). Quantification of AIF staining in different subcellular compartments. […]
HLE cells cultured in 96-well plate were treated with DBZIM for 24 hr before staining and imaging. […] The cells were imaged and analyzed on ArrayScan VTI HCS reader (Thermal Scientific, PA, USA). Fluorescence intensity in the cytoplasmic and nuclear area was plotted for indication of cytoplasm to nucleus translocation. […]

AP-1 = assay: Western blot of AP-1 complex members in nuclear extracts; format: cell-based, human; settings: 24 hr
Method: FIG. 28. DBZIM induced up-regulation of AP-1 expression in HepG2 cells. HepG2 cells were treated with DBZIM for 24 hr. Cytoplasmic and nuclear proteins were fractionated using a kit from Pierce. 15 μg of nuclear proteins were resolved in 4-12% gradient PAGE-SDS gel. The target proteins were recognized by their respective antibodies, and visualized by the ECL method. The membrane was stripped and re-probed for Tata binding protein TBP as loading control.
as §1, with “Fifteen micrograms of protein were resolved in 4-12% gradient SDS/polyacrylamide gel electrophoresis (PAGE) gel, and transferred to nitrocellular membrane.” left out, “Alpha-tubulin (Abeam, UK) was used as the loading control for total protein, Tata binding protein (TBP) (Abeam, UK) was used as the loading control for nuclear protein, and Cox4 (Abcam, UK) was used as loading control for mitochondria protein.” left out

HLE cells [4] = assay: DNA content analysis (cell cycle) in HLE cells; format: cell-based, human; settings: 0, 1, 3 mM, 24 hr
Method: FIG. 21. DBZIM inhibited cell proliferation and disrupted cell cycle in HLE cells (A). DBZIM inhibited HCC cell proliferation. HLE cells were seeded at a density of 5000 cells/well in 96-well plate, and cultured for 18-24 h in 10% […] DMEM before the addition of various compounds (0-1.25 mM) in 10% FBS DMEM for 48 h of proliferation before assaying. Cell count was calculated based on Hoechst dye staining and BrdU incorporation was based on the total fluorescence intensity of antibody staining. (B). DBZIM arrested HCC cells at G0/G1 phase. HLE cells were incubated with DBZIM (0, 1, 3 mM) for 24 hr before fixation and DAPI staining for DNA content (2N vs. 4N) determination.
HLE cells grown in a 96-well plate were treated with compounds in 6 replicates for 24 hr. Cells were then fixed with 4% paraformaldehyde and stained with DAPI. Cells were analyzed and imaged on ArrayScan VTI HCS reader (Thermal Scientific, PA, USA) and DNA content (2N vs. 4N) was determined based on DAPI staining.

Compound	stability in water [1]	Bak protein [2]	Bcl-2α and Bax proteins [2]	Bcl-XL protein [2]	survivin protein [2]	xIAP and cIAP proteins [2]	LDH release (HLE cells [3])	caspase 3/7 activity (HLE cells [3])	AIF translocation (AIF)	AP-1 complex members (C-Jun, Jun B, Jun D, Fra-1; not Fra-2) (AP-1)	cell cycle arrest (HLE cells [4])
CC(C)n1cc[n+](C(C)C)c1.F[B-](F)(F)F [DPIM, 1,3-diisopropylimidazolium tetrafluoroborate]	stable in water at room temperature condition for at least two weeks										
[Br-].c1ccc(Cn2cc[n+](Cc3ccccc3)c2)cc1 [DBZIM, 1,3-bisbenzylimidazolium bromide]		up-regulated	not affected	slightly down-regulated	significantly suppressed	not affected	least affected	enhanced	induce the translocation of AIF to the nucleus	significantly induced	arrested HLE cells in the G0/G1 phase
